Source: US9724319B2, “Compositions and methods for the reduction or prevention of hepatic steatosis” (priority 2014, dated 2017)

Key:
[1] = test system: liver mass or hepatic lipid accumulation; settings: 25 mg icariin/kg diet; corresponding to 4 mg/kg body weight/day; cited from earlier work
[2] = test system: high fat diet-induced hepatic steatosis; test: Liver weight after treatment of high fat diet-induced hepatic steatosis; format: in vivo, C57Bl/6 mice; settings: HFD mice, six weeks, metformin 1.5 g/kg diet
Description: (§1) Chronic high fat diet was used in C57Bl/6 mice as an experimental model of hepatic steatosis. Male C57/BL6 mice were either maintained on standard low-fat diet (control; LFD; 10% energy from fat) or placed on a high fat (HFD; 60% energy from fat, Research Diets #D12492, Research Diets, Inc, New Brunswick, N.J.) at six weeks of age to induce obesity and fatty infiltration of the liver. […] Animals were then randomized to treatments for an additional six weeks, with 10 animals per group, as specified in the following examples.
In this study, the effects of metformin alone (therapeutic dose), subtherapeutic metformin alone, subtherapeutic leucine, and various combinations of leucine, metformin, and resveratrol on liver weight and hepatic lipid accumulation were assessed. The 1.5 g/kg diet of metformin corresponds to a therapeutically effective dose of metformin in humans. […] Likewise, the 24 g/kg dose of leucine represents a sub-therapeutic dose that was predicted to exert no significant independent effects on liver mass or hepatic steatosis. Following induction of hepatic steatosis as described in Example 1, animals were treated according to the following treatment groups as depicted in Table 21:
(§2) In this study, the effects of metformin alone (therapeutic dose) vs. combination therapy with sub-therapeutic amounts of metformin and leucine on liver weight and hepatic lipid accumulation were assessed. Following induction of hepatic steatosis as described in Example 1, animals were treated for six weeks according to the following treatment groups as depicted in Table 22:

[3] = test system: HFD-induced hepatic steatosis; test: Prophylactic treatment concurrent with high fat diet feeding (Examples 6-8); format: in vivo, C57Bl/6 mice; settings: treatments and HFD initiated on the same day, six weeks, doses as Tables 25-27
Description: C57Bl/6 mice are assigned to the following experimental groups as depicted in Table 25: Drug treatments and high fat diet feeding (as described in Example 1) are initiated on the same day and are carried out for six weeks. The effects of the treatments and diet on liver mass and hepatic lipid accumulation are assessed as described in the preceding examples. […] C57Bl/6 mice are assigned to the following experimental groups as depicted in Table 26: Drug treatments and high fat diet feeding (as described in Example 1) are initiated on the same day and are carried out for six weeks. The effects of the treatments and diet on liver mass and hepatic lipid accumulation are assessed as described in the preceding examples. […] In this study, the prophylactic effects of sub-therapeutic leucine alone, and co-administration of leucine and the PDE5-specific inhibitor icariin on liver mass and hepatic steatosis are assessed. C57Bl/6 mice are assigned to the following experimental groups as depicted in Table 27: Drug treatments and high fat diet feeding (as described in Example 1) are initiated on the same day and are carried out for six weeks. The effects of the treatments and diet on liver mass and hepatic lipid accumulation are assessed as described in the preceding examples.

[4] = test system: liver triglycerides; settings: Example 3; HFD mice, six weeks; metformin alone 1.5 g/kg diet; combination: leucine + metformin 0.5 g/kg
Description: as §1, §2

[5] = test system: hepatic steatosis (lipid vesicles in liver cells); test: Histological analysis of hepatic lipid accumulation after high fat diet; settings: Example 3; HFD mice, six weeks; therapeutic metformin; combination: leucine + metformin 0.5 g/kg
Description: as §1
In this study, the effects of metformin alone (therapeutic dose), subtherapeutic metformin alone, subtherapeutic leucine, and various combinations of leucine, metformin, and resveratrol on liver weight and hepatic lipid accumulation were assessed. The 1.5 g/kg diet of metformin corresponds to a therapeutically effective dose of metformin in humans. […] Likewise, the 24 g/kg dose of leucine represents a sub-therapeutic dose that was predicted to exert no significant independent effects on liver mass or hepatic steatosis. […]
In this study, the effects of metformin alone (therapeutic dose) vs. combination therapy with sub-therapeutic amounts of metformin and leucine on liver weight and hepatic lipid accumulation were assessed. […]

| Compound | Effect on hepatic lipid accumulation [1] | Effect on liver mass [1] | Effect on liver weight ([2]; Example 2, leucine 24 g/kg diet, resveratrol 12.5 mg/kg diet) | Effect on liver weight ([2]; Example 3) | Effect on liver weight ([2]; Example 4) | Effect on HFD-induced hepatic lipid accumulation [3] | Effect on HFD-induced increase in liver mass [3] | Effect on liver triglycerides [4] | Effect on hepatic steatosis (histological analysis) [5] |
| --- | --- | --- | --- | --- | --- | --- | --- | --- | --- |
| COc1ccc(-c2oc3c(CC=C(C)C)c(O[C@@H]4O[C@H](CO)[C@@H](O)[C@H](O)[C@H]4O)cc(O)c3c(=O)c2O[C@@H]2O[C@@H](C)[C@H](O)[C@@H](O)[C@H]2O)cc1 [icariin] | no effect | no effect |  |  |  |  |  |  |  |
| metformin |  |  | partially reverse the effect of high fat diet on liver weight | reversed the effect of high fat diet on liver weight back to control levels | reversed the effect of high fat diet on liver weight back to control levels | attenuates | attenuates | partially reversed the effect of high fat diet on liver triglycerides | partially reversed hepatic steatosis |
